Test results from US7276536B2, “Method for increasing the bioavailability of the active form of S-[2-([[1-(2-ethylbutyl)cyclohexyl]carbonyl]amino) phenyl] 2-methylpropanethioate” (Japan Tobacco Inc., priority 2003, dated 2007).

How the values were obtained:
[1] = biological target: T1, cholesteryl ester transfer protein (CETP) (Homo sapiens, UniProt P11597); test: CETP activity change from baseline after 900 mg oral Compound I, fed vs fasted (Example 2); type: in vivo, human (Caucasian male patients); details: mean
T1 construct: from tissue; host or cells: samples from dosed male patients (CETP is described as a plasma protein)
T1 sequence (P11597 18-493): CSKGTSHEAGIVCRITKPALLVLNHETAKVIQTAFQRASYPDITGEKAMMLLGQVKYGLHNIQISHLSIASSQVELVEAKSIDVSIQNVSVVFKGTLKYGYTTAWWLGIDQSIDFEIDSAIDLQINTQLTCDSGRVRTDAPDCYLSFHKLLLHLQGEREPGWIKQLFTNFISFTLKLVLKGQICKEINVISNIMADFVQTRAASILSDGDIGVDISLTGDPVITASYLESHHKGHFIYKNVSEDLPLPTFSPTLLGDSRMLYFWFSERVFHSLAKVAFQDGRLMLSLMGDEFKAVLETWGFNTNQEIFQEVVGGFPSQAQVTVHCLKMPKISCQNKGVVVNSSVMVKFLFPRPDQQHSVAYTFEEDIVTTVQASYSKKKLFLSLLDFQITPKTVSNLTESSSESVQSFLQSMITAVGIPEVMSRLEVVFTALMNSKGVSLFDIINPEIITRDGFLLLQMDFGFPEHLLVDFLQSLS
Protocol: Administration, dosing, and sampling schedules were substantially similar to those described in Example 1.
The procedure for determining CETP activity was substantially similar to the procedures described in Tollefson et al., Methods Enzymol., 129, 797-816 (1986), and Kato et al., J. Biol. Chem., 264, 4082-4087 (1989).
CETP activity and changes from baseline (pre-dose) were measured, and the resulting data is summarized in Table 2 as percentage change from baseline. The mean changes from baseline (pre-dose) in CETP activity over time are set out in the plot of FIG. 3.

[2] = Food-effect pharmacokinetic study, 600 mg oral Compound I, fed vs fasted (Example 4); type: in vivo, human (Japanese male volunteers)
Protocol: Administration, dosing, and sampling schedules were commensurate with those described in Example 1. […] Patients were administered two tablets of 300 mg each. The tablets were prepared as described in Example 1.

For `CCC(CC)CC1(C(=O)Nc2ccccc2SC(=O)C(C)C)CCCCC1` [Compound I, S-[2-([[1-(2-ethylbutyl)cyclohexyl]carbonyl]amino)phenyl]2-methylpropanethioate], which “Percent change from pre-dose in CETP activity” value (shortened to “Percent change from pre-dose”) ([1]; Fasted, 1 h) is on record?
The value was 1%.

What about the “Percent change from pre-dose” value ([1]; Fasted, 2 h) of the same molecule?
Its value is 2%.

And the “Percent change from pre-dose” value ([1]; Fasted, 4 h)?
Its value is −4%.

And the “Percent change from pre-dose” value ([1]; Fasted, 6 h)?
Its value is −10%.

And the “Percent change from pre-dose” value ([1]; Fasted, 8 h)?
The value was −15%.

What about the “Percent change from pre-dose” value ([1]; Fasted, 24 h) of the same molecule?
The value was −10%.

What about the “Percent change from pre-dose” value ([1]; Fed, 1 h) of the same molecule?
Its value is −1%.

And the “Percent change from pre-dose” value ([1]; Fed, 2 h)?
Its value is −16%.

And the “Percent change from pre-dose” value ([1]; Fed, 4 h)?
The value was −44%.

What about the “Percent change from pre-dose” value ([1]; Fed, 6 h) of the same molecule?
Its value is −59%.

What about the “Percent change from pre-dose” value ([1]; Fed, 8 h) of the same molecule?
The value was −58%.

What about the “Percent change from pre-dose” value ([1]; Fed, 24 h) of the same molecule?
The value was −34%.

And the “AUC0-∞ times higher with food as compared to without food” value [2]?
Its value is ~2 times.
